Source: patent US11311522B1 (Cavion, Inc., priority 2018, dated 2022)
“And” between values parts separate entries of the source, which are not always exact repeats. Equal entries are not always repeated. Where two headings read alike, the source gives them in different places.

How the values were obtained:
[1] = Phase 1 single-dose pharmacokinetics (PN001, PN002/Part I, PN003, PN005); format: in vivo, human; conditions: for Cmax / AUC(0-t): male, human, plasma, oral; for AUC(0-t): read-out: AUC0-24
[2] = Off-target panel of enzyme and receptor binding sites, ion channels, transporters; conditions: 10 μM, over 170 targets
[3] = In vitro plasma protein binding, rat; format: in vitro ADME
Source text: CX-8998 distributes readily to the brain in rats and to brain and cerebral spinal fluid (CSF) in dogs.

slow wave activity = test: PN003: polysomnogram, slow wave activity; format: in vivo, human; conditions: 12 mg single dose, 24 subjects, Study PN003
Description: A washout period of at least 2 weeks separated the treatment periods. […] The PSG recordings were initiated at each subject's habitual bedtime and continued for 8 hours.

[4] = rat, in vivo, 300 mg/kg/day
[5] = doses up to 6000 μg/plate
[6] = for Day 90 Free Plasma AUC24 at NOAEL for Dog 90-Day Toxicology: 30 mg/kg/day; for Day 90 Free Plasma AUC24 at NOAEL for Rat 90-Day Toxicology: 300 mg/kg/day
in vivo = conditions: Beagle, dog, in vivo, po
clinical = conditions: human, plasma, oral, 8 mg
Source text: Subjects will be screened for study eligibility within 28 days before administration of the first dose of study drug. Subjects who meet the study eligibility criteria will be admitted to the clinical research unit in the afternoon of the day before administration of the first dose of study drug (Period 1/Day −1).
Treatments A, B, and C will be separated by a minimum 7-day washout period. […] Administration of Treatment D may be separated from administration of Treatments A, B, and C by approximately 4 weeks to allow for analysis of the bioanalytical samples from the first 3 treatments.

[7] = Crossover bioavailability study IR vs MR1 vs MR2 capsules: PK; parameters: AUC72hr: unit not given beside the values; conditions: for AUC728, Mean / AUC728: single 8 mg dose, fasted; for AUC728, Mean: N=15; for AUC728: individual subjects; for AUC72hr: plasma

CC(C)c1ccc(CC(=O)N[C@H](C)c2ccc(OCC(F)(F)F)cn2)cc1 [CX-8998] gave a Cmax ([1]; 1 mg, PN001/Part I, males 20-40 y, single 1 mg fed, read-out: Cmax) of 56 nM, a Cmax ([1]; 1 mg, PN001/Part I, males 20-40 y, single 1 mg, morning fasted, read-out: Cmax) of 104 nM and a Cmax ([1]; 1 mg, fasted, read-out: Cmax, mean) of 104 nM. For the same molecule, the Cmax ([1]; 1 mg, fed (high-fat meal), read-out: Cmax, mean) was 56 nM, the Cmax ([1]; 2 mg, PN002/Part I, males 55-75 y, single 2 mg, morning fasted, read-out: Cmax) was 198 nM and the Cmax ([1]; 8 mg, PN002/Part I, males 55-75 y, single 8 mg, morning fasted, read-out: Cmax) was 708 nM. It also gave a Cmax ([1]; 8 mg, single 8 mg CX-8998, PN002/Part I middle-aged and elderly males, read-out: Cmax) of 708 nM, an AUC(0-t) ([1]; 12 mg, PN002 Part 2, 12 mg, 1 dose) of 4.99 µM·h and a Cmax ([1]; 12 mg, PN002 Part 2, 12 mg, 1 dose, read-out: Cmax) of 798 nM. For the same molecule, the AUC(0-t) ([1]; 16 mg, PN001 Part 1, 16 mg, 1 dose) was 8.52 µM·h, the Cmax ([1]; 18 mg, PN001/Part II, males 22-39 y, single 18 mg, morning fasted, read-out: Cmax) was 1180 nM and the AUC(0-t) ([1]; 18 mg, PN001 Part 2, 18 mg, 1 dose) was 9.93 µM·h. The Cmax ([1]; 18 mg, PN001 Part 2, 18 mg, 1 dose, read-out: Cmax) was 1180 nM, the Cmax ([1]; 18 mg, PN002/Part I, males 55-75 y, single 18 mg, morning fasted, read-out: Cmax) was 1330 nM and the AUC(0-t) ([1]; 18 mg, PN002 Part 1, 18 mg, 1 dose) was 9.44 µM·h. It also gave a Cmax ([1]; 18 mg, PN002 Part 1, 18 mg, 1 dose, read-out: Cmax) of 1330 nM, a Cmax ([1]; 24 mg, PN001/Part I, males 20-40 y, single 24 mg evening, read-out: Cmax) of 1370 nM and an AUC(0-t) ([1]; Average of studies, dose 16, 1 dose) of 8.22 µM·h. For the same molecule, the Cmax ([1]; Average of studies, dose 16, 1 dose, read-out: Cmax) was 1060 nM, the “Mean Cmax higher than in younger male subjects” value ([1]; middle-aged and elderly female, 8 mg) was 6% and the “Mean Cmax higher than in younger male subjects” value ([1]; middle-aged and elderly male, 8 mg) was 28%. For the same molecule, the “Reduction in Cmax with food” value ([1]; vs fasted state) was 45%, the Off-target effects [2] was “No off-target effects” and the fraction unbound ([3]; rat plasma, read-out: In vitro plasma protein binding (converted)) was roughly 0.008. The fraction unbound ([3]; rats, read-out: free fraction) was 0.008, the fraction unbound ([3]; rodents, read-out: Plasma-free fraction) was 0.004 and the “Slow Wave Activity during the First One-Third of the Sleep Period, Geometric Mean” value (slow wave activity) was 26.36 μV^2/Hz. The “Slow Wave Activity during the First One-Third of the Sleep Period, Raw Value Mean” value (slow wave activity) was 30.51 μV^2/Hz, the “Decrease in food consumption” value [4] was “up to 19%” and the Ames assay result [5] was “negative”. The “Day 90 Free Margin for AUC24 at NOAEL for Dog 90-Day Toxicology” value ([6]; Female dogs vs human 10 mg BID) was 19, the “Day 90 Free Margin for Cmax at NOAEL for Dog 90-Day Toxicology” value ([6]; Female dogs vs human 10 mg BID (fed)) was 57 and the “Day 90 Free Plasma AUC24 at NOAEL for Dog 90-Day Toxicology” value ([6]; Female dogs) was 1089 nM · hr. For the same molecule, the “Day 90 Free Margin for AUC24 at NOAEL for Rat 90-Day Toxicology” value ([6]; Female rats vs human 10 mg BID) was 81, the “Day 90 Free Margin for Cmax at NOAEL for Rat 90-Day Toxicology” value ([6]; Female rats vs human 10 mg BID (fed)) was 184 and the “Day 90 Free Plasma AUC24 at NOAEL for Rat 90-Day Toxicology” value ([6]; Female rats) was 4528 nM · hr. For the same molecule, the “Day 90 Free Margin for AUC24 at NOAEL for Dog 90-Day Toxicology” value ([6]; Male dogs vs human 10 mg BID) was 18, the “Day 90 Free Margin for Cmax at NOAEL for Dog 90-Day Toxicology” value ([6]; Male dogs vs human 10 mg BID (fed)) was 51 and the “Day 90 Free Plasma AUC24 at NOAEL for Dog 90-Day Toxicology” value ([6]; Male dogs) was 1005 nM · hr. The “Day 90 Free Margin for AUC24 at NOAEL for Rat 90-Day Toxicology” value ([6]; Male rats vs human 10 mg BID) was 37, the “Day 90 Free Margin for Cmax at NOAEL for Rat 90-Day Toxicology” value ([6]; Male rats vs human 10 mg BID (fed)) was 78 and the “Day 90 Free Plasma AUC24 at NOAEL for Rat 90-Day Toxicology” value ([6]; Male rats) was 2088 nM · hr. For the same molecule, the “NOAEL exposure vs intended free clinical exposures” value ([6]; beagle, dog) was “approximately 20 times”, the “Exposure without effects on fertility or reproduction vs intended clinical free AUC” value ([6]; rat) was greater than 100 times and the “NOAEL exposure vs intended free clinical exposures” value ([6]; rat) was “at least 39 times”. The AUC (in vivo; female, 300 mg/kg/day) was 2080 µM·h, the Cmax (in vivo; female, 300 mg/kg/day) was 158000 nM and the AUC (in vivo; male, 3 mg/kg/day) was 62.5 µM·h. It also gave a Cmax (in vivo; male, 3 mg/kg/day) of 8400 nM, a Cmax (in vivo; male, 30 mg/kg/day) of 73500 nM and a Cmax (in vivo; male, 300 mg/kg/day) of 253000 nM. For the same molecule, the AUC(0-t) (clinical) was 7.49 µM·h, the “AUC728, Mean” value ([7]; IR Formulation) was 7435 nMh and the AUC728 ([7]; IR Formulation) was 9175 nMh and 4786 nMh and 6911 nMh and 7288 nMh and 4596 nMh and 7940 nMh and 13892 nMh and 7217 nMh and 7305 nMh and 9382 nMh and 5463 nMh and 6845 nMh and 5185 nMh and 8628 nMh and 6910 nMh. For the same molecule, the “AUC728, Mean” value ([7]; MR1 Formulation) was 7526 nMh, the AUC728 ([7]; MR1 Formulation) was 9494 nMh and 4762 nMh and 7028 nMh and 7387 nMh and 4102 nMh and 8335 nMh and 13265 nMh and 8177 nMh and 6271 nMh and 9351 nMh and 5184 nMh and 7996 nMh and 5635 nMh and 8950 nMh and 7114 nMh and the “AUC728, Mean” value ([7]; MR2 Formulation) was 7119 nMh. The AUC728 ([7]; MR2 Formulation) was 11133 nMh and 3862 nMh and 8064 nMh and 6813 nMh and 4833 nMh and 8180 nMh and 10810 nMh and 6034 nMh and 6730 nMh and 10165 nMh and 4975 nMh and 6136 nMh and 3085 nMh and 10051 nMh and 5947 nMh, the AUC72hr ([7]; following a single 8 mg dose of MR1 CX-8998) was 7530 and the AUC72hr ([7]; following a single 8 mg dose of MR2 CX-8998) was 7125.
